Assay results: ChEMBL document CHEMBL3797190, “Development of 3,5-Dinitrobenzylsulfanyl-1,3,4-oxadiazoles and Thiadiazoles as Selective Antitubercular Agents Active Against Replicating and Nonreplicating Mycobacterium tuberculosis” (J Med Chem, 2016); call rule not given here
Values after ≈ are worked out from the molar mass of the structure shown.

Columns and labels:
Mycobacterium kansasii [1] = experiment: Antimycobacterial activity against Mycobacterium kansasii CNCTC My 6509/96 after 21 days by microdilution method; type: functional; settings: CNCTC My 6509/96, 504 h
[2] = Cytotoxicity against human HuH7 cells assessed as cell viability after 24 hrs by MTS assay; type: cell-based; settings: Huh-7, 24 h
[3] = Cytotoxicity against human HuH7 cells assessed as cell viability after 48 hrs by MTS assay; type: cell-based; settings: Huh-7, 48 h
HeLa [4] = experiment: Cytotoxicity against human HeLa cells assessed as cell viability after 24 hrs by MTS assay; type: cell-based
[5] = Cytotoxicity against MDCK2-MDR1 cells assessed as cell viability after 24 hrs by MTS assay; type: ADME, cell-based; settings: Canis lupus familiaris, MDCK-II
[6] = Cytotoxicity against human HuH7 cells assessed as cell viability at 20 uM after 24 hrs by MTS assay; type: cell-based, Huh-7; settings: read-out: Activity
[7] = Cytotoxicity against human HuH7 cells assessed as cell viability at 20 uM after 48 hrs by MTS assay; type: cell-based, Huh-7; settings: read-out: Activity
[8] = Cytotoxicity against human HeLa cells assessed as cell viability at 20 uM after 24 hrs by MTS assay; type: cell-based; settings: read-out: Activity
[9] = Cytotoxicity against human HeLa cells assessed as cell viability at 20 uM after 48 hrs by MTS assay; type: cell-based; settings: read-out: Activity
[10] = Cytotoxicity against MDCK2-MDR1 cells assessed as cell viability at 20 uM after 24 hrs by MTS assay; type: ADME, cell-based, Canis lupus familiaris, MDCK-II; settings: dog, read-out: Activity
[11] = Cytotoxicity against MDCK2-MDR1 cells assessed as cell viability at 20 uM after 48 hrs by MTS assay; type: ADME, cell-based, Canis lupus familiaris, MDCK-II; settings: dog, read-out: Activity
Salmonella typhimurium [12] = experiment: Mutagenic activity in Salmonella typhimurium TA100 assessed as reverse mutation at 30 uM by Ames test; type: toxicity, organism-based; settings: salmonella enterica subsp. enterica serovar typhimurium
Salmonella typhimurium [13] = experiment: Mutagenic activity in Salmonella typhimurium TA98 assessed as reverse mutation at 30 uM by Ames test; type: toxicity, organism-based; settings: salmonella enterica subsp. enterica serovar typhimurium
Candida albicans = experiment: Antifungal activity against Candida albicans ATCC 44859 after 24 to 48 hrs by broth microdilution method; type: functional
Candida tropicalis = experiment: Antifungal activity against Candida tropicalis 156 after 24 to 48 hrs by broth microdilution method; type: functional
Pichia kudriavzevii = experiment: Antifungal activity against Candida krusei E28 after 24 to 48 hrs by broth microdilution method; type: functional
Nakaseomyces glabratus = experiment: Antifungal activity against Candida glabrata 20/I after 24 to 48 hrs by broth microdilution method; type: functional
Trichosporon asahii = experiment: Antifungal activity against Trichosporon asahii 1188 after 24 to 48 hrs by broth microdilution method; type: functional
Aspergillus fumigatus = experiment: Antifungal activity against Aspergillus fumigatus 231 after 24 to 48 hrs by broth microdilution method; type: functional
Lichtheimia corymbifera = experiment: Antifungal activity against Absidia corymbifera 272 after 24 to 48 hrs by broth microdilution method; type: functional
[14] = system: Trichophyton mentagrophytes; experiment: Antifungal activity against Trichophyton mentagrophytes 445 after 72 to 120 hrs by broth microdilution method; type: functional
Staphylococcus aureus [15] = experiment: Antibacterial activity against Staphylococcus aureus ATCC 6538 after 24 to 48 hrs by broth microdilution method; type: functional
Staphylococcus aureus [16] = experiment: Antibacterial activity against methicillin-resistant Staphylococcus aureus H 5996/08 after 24 to 48 hrs by broth microdilution method; type: functional
[17] = system: Staphylococcus epidermidis; experiment: Antibacterial activity against Staphylococcus epidermidis H 6966/08 after 24 to 48 hrs by broth microdilution method; type: functional
Enterococcus faecalis = experiment: Antibacterial activity against Enterococcus faecalis J 14365/08 after 24 to 48 hrs by broth microdilution method; type: functional
Escherichia coli = experiment: Antibacterial activity against Escherichia coli ATCC 8739 after 24 to 48 hrs by broth microdilution method; type: functional
Klebsiella pneumoniae [18] = experiment: Antibacterial activity against Klebsiella pneumoniae D 11750/08 after 24 to 48 hrs by broth microdilution method; type: functional
Klebsiella pneumoniae [19] = experiment: Antibacterial activity against ESBL producing Klebsiella pneumoniae J 14368/08 after 24 to 48 hrs by broth microdilution method; type: functional
Pseudomonas aeruginosa = experiment: Antibacterial activity against Pseudomonas aeruginosa ATCC 9027 after 24 to 48 hrs by broth microdilution method; type: functional
[20] = system: Mycobacterium tuberculosis; experiment: Antimycobacterial activity against Mycobacterium tuberculosis CNCTC My 331/88 after 14 days by microdilution method; type: functional; settings: CNCTC My 331/88, 336 h
Mycobacterium avium [21] = experiment: Antimycobacterial activity against Mycobacterium avium CNCTC My 330/88 after 14 days by microdilution method; type: functional; settings: CNCTC My 330/88, 336 h
Mycobacterium kansasii [22] = experiment: Antimycobacterial activity against Mycobacterium kansasii CNCTC My 235/80 after 14 days by microdilution method; type: functional; settings: CNCTC My 235/80, 336 h
Mycobacterium kansasii [23] = experiment: Antimycobacterial activity against Mycobacterium kansasii CNCTC My 6509/96 after 14 days by microdilution method; type: functional; settings: CNCTC My 6509/96, 336 h
[24] = system: Mycobacterium tuberculosis; experiment: Antimycobacterial activity against Mycobacterium tuberculosis CNCTC My 331/88 after 21 days by microdilution method; type: functional; settings: CNCTC My 331/88, 504 h
Mycobacterium avium [25] = experiment: Antimycobacterial activity against Mycobacterium avium CNCTC My 330/88 after 21 days by microdilution method; type: functional; settings: CNCTC My 330/88, 504 h
Mycobacterium kansasii [26] = experiment: Antimycobacterial activity against Mycobacterium kansasii CNCTC My 235/80 after 21 days by microdilution method; type: functional; settings: CNCTC My 235/80, 504 h
Mycobacterium kansasii [27] = experiment: Antimycobacterial activity against Mycobacterium kansasii CNCTC My 235/80 after 7 days by microdilution method; type: functional; settings: CNCTC My 235/80, 168 h
Mycobacterium kansasii [28] = experiment: Antimycobacterial activity against Mycobacterium kansasii CNCTC My 6509/96 after 7 days by microdilution method; type: functional; settings: CNCTC My 6509/96, 168 h
HeLa [29] = experiment: Cytotoxicity against human HeLa cells assessed as cell viability after 48 hrs by MTS assay; type: cell-based
[30] = Cytotoxicity against MDCK2-MDR1 cells assessed as cell viability after 48 hrs by MTS assay; type: ADME, cell-based; settings: Canis lupus familiaris, MDCK-II
Hepatocyte = experiment: Cytotoxicity against primary human hepatocytes assessed as cell viability after 48 hrs by MTS assay; type: cell-based
[31] = Cytotoxicity against primary human hepatocytes assessed as cell viability at 20 uM after 48 hrs by MTS assay; type: cell-based, Hepatocyte; settings: read-out: Activity

Row | Compound | MIC99 (Mycobacterium kansasii [1]) | IC50 [2] | IC50 [3] | IC50 (HeLa [4]) | IC50 [5] | viability at 24 h, 20 µM [6] | viability at 48 h, 20 µM [7] | viability at 24 h, 20 µM [8] | viability at 48 h, 20 µM [9] | viability at 24 h, 20 µM [10] | viability at 48 h, 20 µM [11] | MIC80 (Candida albicans) | MIC80 (Candida tropicalis) | MIC80 (Pichia kudriavzevii) | MIC80 (Nakaseomyces glabratus) | MIC80 (Trichosporon asahii) | MIC50 (Aspergillus fumigatus) | MIC50 (Lichtheimia corymbifera) | MIC50 [14] | MIC95 (Staphylococcus aureus [15]) | further results
1 | O=[N+]([O-])c1cc(CSc2nnc(-c3ccccc3)o2)cc([N+](=O)[O-])c1 | 2 µM (≈ 0.717 µg/mL) | > 20 µM | > 20 µM | > 20 µM | > 20 µM | 99.3% | 73.8% | 88.3% | 33.2% | 72.6% | 42.4% | > 125 µM | > 125 µM | > 125 µM | > 125 µM | > 125 µM | > 125 µM | > 125 µM | > 125 µM | > 125 µM | Activity (Salmonella typhimurium [12]): Non-toxic; Activity (Salmonella typhimurium [13]): Toxic; MIC95 (Staphylococcus aureus [16]): > 125 µM; MIC95 [17]: > 125 µM; MIC95 (Enterococcus faecalis): > 125 µM; MIC95 (Escherichia coli): > 125 µM; MIC95 (Klebsiella pneumoniae [18]): > 125 µM; MIC95 (Klebsiella pneumoniae [19]): > 125 µM; MIC95 (Pseudomonas aeruginosa): > 125 µM
2 | COc1ccc(-c2nnc(SCc3ccc([N+](=O)[O-])cc3[N+](=O)[O-])o2)cc1 | 16 µM (≈ 6.21 µg/mL) | > 20 µM | > 20 µM | > 20 µM | > 20 µM | 85.1% | 77% | 89.9% | 106% | 87.9% | 78.5% | > 125 µM | > 125 µM | > 125 µM | > 125 µM | > 125 µM | > 125 µM | > 125 µM | > 125 µM | > 125 µM | MIC99 [20]: 0.5 µM (≈ 0.194 µg/mL); MIC99 (Mycobacterium avium [21]): 4 µM (≈ 1.55 µg/mL); MIC99 (Mycobacterium kansasii [22]): 8 µM (≈ 3.11 µg/mL); MIC99 (Mycobacterium kansasii [23]): 8 µM (≈ 3.11 µg/mL); MIC99 [24]: 1 µM (≈ 0.388 µg/mL); MIC99 (Mycobacterium avium [25]): 4 µM (≈ 1.55 µg/mL); MIC99 (Mycobacterium kansasii [26]): 16 µM (≈ 6.21 µg/mL); MIC99 (Mycobacterium kansasii [27]): 2 µM (≈ 0.777 µg/mL); MIC99 (Mycobacterium kansasii [28]): 2 µM (≈ 0.777 µg/mL); IC50 (HeLa [29]): > 20 µM; IC50 [30]: > 20 µM; MIC95 (Staphylococcus aureus [16]): > 125 µM; MIC95 [17]: > 125 µM; MIC95 (Enterococcus faecalis): > 125 µM; MIC95 (Escherichia coli): > 125 µM; MIC95 (Klebsiella pneumoniae [18]): > 125 µM; MIC95 (Klebsiella pneumoniae [19]): > 125 µM; MIC95 (Pseudomonas aeruginosa): > 125 µM
3 | COc1ccc(-c2nnc(SCc3cc([N+](=O)[O-])cc([N+](=O)[O-])c3)s2)cc1 | 1 µM (≈ 0.404 µg/mL) | > 20 µM | > 20 µM | > 20 µM | > 20 µM | 95.4% | 84.2% | 88% | 27.1% | 101% | 60% | > 125 µM | > 125 µM | > 125 µM | > 125 µM | > 125 µM | > 125 µM | > 125 µM | > 125 µM | > 125 µM | MIC99 [20]: 0.125 µM (≈ 0.0506 µg/mL); MIC99 (Mycobacterium avium [21]): 8 µM (≈ 3.24 µg/mL); MIC99 (Mycobacterium kansasii [22]): 1 µM (≈ 0.404 µg/mL); MIC99 (Mycobacterium kansasii [23]): 1 µM (≈ 0.404 µg/mL); MIC99 [24]: 0.125 µM (≈ 0.0506 µg/mL); MIC99 (Mycobacterium avium [25]): 16 µM (≈ 6.47 µg/mL); MIC99 (Mycobacterium kansasii [26]): 1 µM (≈ 0.404 µg/mL); MIC99 (Mycobacterium kansasii [27]): 0.25 µM (≈ 0.101 µg/mL); MIC99 (Mycobacterium kansasii [28]): 0.25 µM (≈ 0.101 µg/mL); IC50 (HeLa [29]): 4.4 µM; IC50 [30]: > 20 µM; MIC95 (Staphylococcus aureus [16]): > 125 µM; MIC95 [17]: > 125 µM; MIC95 (Enterococcus faecalis): > 125 µM; MIC95 (Escherichia coli): > 125 µM; MIC95 (Klebsiella pneumoniae [18]): > 125 µM; MIC95 (Klebsiella pneumoniae [19]): > 125 µM; MIC95 (Pseudomonas aeruginosa): > 125 µM
4 | COc1cccc(-c2nnc(SCc3cc([N+](=O)[O-])cc([N+](=O)[O-])c3)s2)c1 | 0.5 µM (≈ 0.202 µg/mL) | > 20 µM | – | > 20 µM | > 20 µM | 86.3% | 33% | 71.2% | 17.5% | 100% | 18.5% | – | – | – | – | – | – | – | – | – | MIC99 [20]: ≤ 0.03 µM; MIC99 (Mycobacterium avium [21]): 8 µM (≈ 3.24 µg/mL); MIC99 (Mycobacterium kansasii [22]): 0.5 µM (≈ 0.202 µg/mL); MIC99 (Mycobacterium kansasii [23]): 0.5 µM (≈ 0.202 µg/mL); MIC99 [24]: 0.06 µM (≈ 0.0243 µg/mL); MIC99 (Mycobacterium avium [25]): 16 µM (≈ 6.47 µg/mL); MIC99 (Mycobacterium kansasii [26]): 0.5 µM (≈ 0.202 µg/mL); MIC99 (Mycobacterium kansasii [27]): 0.25 µM (≈ 0.101 µg/mL); MIC99 (Mycobacterium kansasii [28]): 0.25 µM (≈ 0.101 µg/mL); IC50 (HeLa [29]): 4 µM; IC50 [30]: 6.4 µM; IC50 (Hepatocyte): > 20 µM; viability at 48 h, 20 µM [31]: 121%; Activity (Salmonella typhimurium [12]): Non-toxic; Activity (Salmonella typhimurium [13]): Non-toxic
